The assay has as its target T1, recombinant human AMPK complex, containing α2β1γ2 (Homo sapiens, UniProt P54646+Q9Y478).
T1 construct: hsAMPKα2-552-His, hsAMPKβ1-2-270 and hsAMPKγ-2-569 respectively; hsAMPKβ1-2-270; hsAMPKγ-2-569; His (C); made in house; host or cells: Spodoptera frugiperda Sf21 (baculovirus)
The assay is described as follows: AMPK in vitro activation assay (HTRF). Particulars: for EC50: HTRF, recombinant human α2β1γ2 AMPK, 200 μM ATP, biotinylated ACC-CREBp peptide, repeat determinations on separate lines; for Emax: potentiation of AMPK activity as percent over the basal signal (without compound). Format: biochemical. In short, it runs like this: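 HTRF phosphorylation read-out (Eu-cryptate anti-pS133-CREB, streptavidin-XL665) after a 45 min, 37° C kinase step. This step was initiated by a solution with 200 μM ATP and 2 or 0.08 μM biotinylated ACC-CREBp peptide. Beforehand, compound sat 30 min at room temperature with baculovirus/Sf21 α2β1γ2 in pH 7.0 HEPES buffer; EC50 derived from activation over basal.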
On the technique in general: In TR-FRET formats the signal depends on donor and acceptor labels being close together.

Values joined by “and” are separate entries in the source; they are usually repeats but may differ in a detail not shown here. Equal values may be shown once. Where a name gives a salt, the structure may show the parent alone.

T1 sequence (P54646 2-552): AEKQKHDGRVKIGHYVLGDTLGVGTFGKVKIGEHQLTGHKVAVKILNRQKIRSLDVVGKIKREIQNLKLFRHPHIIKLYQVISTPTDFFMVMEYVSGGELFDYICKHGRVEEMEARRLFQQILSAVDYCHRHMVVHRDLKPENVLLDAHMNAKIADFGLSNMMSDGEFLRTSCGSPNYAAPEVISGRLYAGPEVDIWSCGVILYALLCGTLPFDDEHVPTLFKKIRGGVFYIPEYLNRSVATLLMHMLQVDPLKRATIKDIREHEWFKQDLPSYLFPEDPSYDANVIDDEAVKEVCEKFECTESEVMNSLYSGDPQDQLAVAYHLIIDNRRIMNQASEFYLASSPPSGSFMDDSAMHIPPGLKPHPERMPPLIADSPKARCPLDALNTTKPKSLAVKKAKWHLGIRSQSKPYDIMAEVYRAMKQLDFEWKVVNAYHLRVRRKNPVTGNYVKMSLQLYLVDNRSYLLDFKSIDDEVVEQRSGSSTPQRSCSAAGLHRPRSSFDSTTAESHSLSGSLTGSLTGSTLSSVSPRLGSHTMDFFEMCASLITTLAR
T1 sequence (Q9Y478 2-270): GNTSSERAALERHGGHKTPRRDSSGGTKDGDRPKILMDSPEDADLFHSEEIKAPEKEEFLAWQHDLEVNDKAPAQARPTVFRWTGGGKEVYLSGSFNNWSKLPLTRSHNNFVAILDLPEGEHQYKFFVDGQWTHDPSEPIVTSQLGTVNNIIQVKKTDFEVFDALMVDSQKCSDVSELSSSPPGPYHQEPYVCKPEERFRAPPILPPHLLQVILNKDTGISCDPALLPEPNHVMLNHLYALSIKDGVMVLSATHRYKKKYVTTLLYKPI
T1 sequence (Q9UGJ0 2-569 partner limits assumed): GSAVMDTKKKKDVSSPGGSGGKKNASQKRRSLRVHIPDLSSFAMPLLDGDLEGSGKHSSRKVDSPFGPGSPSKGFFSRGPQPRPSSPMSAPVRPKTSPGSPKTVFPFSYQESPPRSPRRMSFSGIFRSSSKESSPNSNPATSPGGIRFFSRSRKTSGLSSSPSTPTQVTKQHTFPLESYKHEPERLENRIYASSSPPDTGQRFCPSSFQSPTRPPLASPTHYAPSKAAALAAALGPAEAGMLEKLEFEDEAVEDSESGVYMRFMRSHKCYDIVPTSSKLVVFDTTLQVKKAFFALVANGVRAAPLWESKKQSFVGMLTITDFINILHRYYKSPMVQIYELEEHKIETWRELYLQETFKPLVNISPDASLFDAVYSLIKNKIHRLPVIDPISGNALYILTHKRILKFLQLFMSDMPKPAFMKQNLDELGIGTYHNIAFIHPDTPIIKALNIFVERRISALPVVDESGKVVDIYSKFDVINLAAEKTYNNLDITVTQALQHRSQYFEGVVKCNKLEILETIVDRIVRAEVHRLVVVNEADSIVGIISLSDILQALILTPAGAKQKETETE

For `Cc1cc(C(O)=C2C(=O)Nc3cc(Cl)c(-c4ccc(-c5ccco5)cc4)cc32)on1` [Compound 65, 6-Chloro-5-(4-furan-2-yl-phenyl)-3-[1-hydroxy-1-(3-methyl-isoxazol-5-yl)methylidene]-1,3-dihydro-indol-2-one], the half-maximal effective concentration (EC50) is 120 nM and the Emax turned out to be 113%. `CCOc1ccc(-c2cc3c(cc2Cl)NC(=O)C3=C(O)c2cc(C)no2)cc1` [Compound 66, 6-Chloro-5-(4-ethoxy-phenyl)-3-[1-hydroxy-1-(3-methyl-isoxazol-5-yl)-methylidene]-1,3-dihydro-indol-2-one]: the concentration giving a half-maximal response (EC50) was found to be 3070 nM and the Emax came out at 192%.

For the molecule `COc1cc(C(O)=C2C(=O)Nc3cc(Cl)c(-c4ccc(C5=CCOCC5)cc4)cc32)on1` [Compound 67, 6-Chloro-5-[4-(3,6-dihydro-2H-pyran-4-yl)phenyl]-3-[1-hydroxy-1-(3-methoxy-isoxazol-5-yl)methylidene]-1,3-dihydro-indol-2-one], the half-maximal effective concentration (EC50) was found to be 3 nM and the Emax came to 192%. For `Cc1cc(C(O)=C2C(=O)Nc3cc(Cl)c(-c4ccc(C5CCCO5)cc4)cc32)on1` (stereo not drawn) [Compound 68, 6-Chloro-3-[1-hydroxy-1-(3-methyl-isoxazol-5-yl)methylidene]-5-[4-(tetrahydro-furan-2-yl)phenyl]-1,3-dihydro-indol-2-one], in that order: 150 nM and 208%. In the case of `Cc1cc(C(O)=C2C(=O)Nc3cc(Cl)c(-c4ccc(OCCCN5CCNCC5)cc4)cc32)on1` [Compound 69, 6-Chloro-3-[1-hydroxy-1-(3-methyl-isoxazol-5-yl)methylidene]-5-[4-(3-piperazin-1-yl-propoxy)phenyl]-1,3-dihydro-indol-2-one, hydrochloride], the EC50 was determined as 8 nM and the Emax turned out to be 134%. For `Cc1cc(C(O)=C2C(=O)Nc3cc(Cl)c(-c4ccc(OCCCN5CCN(C)CC5)cc4)cc32)on1` [Compound 70, 6-Chloro-3-[1-hydroxy-1-(3-methyl-isoxazol-5-yl)methylidene]-5-{4-[3-(4-methyl-piperazin-1-yl)-propoxy]-phenyl}-1,3-dihydro-indol-2-one, hydrochloride], the concentration giving a half-maximal response (EC50) came out at 88 nM and the maximal effect (Emax) stood at 142%.

`COc1cc(C(O)=C2C(=O)Nc3cc(F)c(-c4ccc(-c5cccc(OC)c5O)cc4)cc32)on1` [Compound 71, 6-Fluoro-5-(2′-hydroxy-3′-methoxy-biphenyl-4-yl)-3-[1-hydroxy-1-(3-methoxy-isoxazol-5-yl)methylidene]-1,3-dihydro-indol-2-one]: the concentration for a half-maximal effect (EC50) came to 2 nM and the maximum response (Emax) was found to be 158%.

On to `Cc1cc(C(O)=C2C(=O)Nc3cc(F)c(-c4ccc(C5(CO)CC5)cc4)cc32)on1` [Compound 72, 6-Fluoro-5-[4-(1-hydroxymethyl-cyclopropyl)phenyl]-3-[1-hydroxy-1-(3-methyl-isoxazol-5-yl)methylidene]-1,3-dihydro-indol-2-one], for which the concentration for a half-maximal effect (EC50) is 2 nM and the maximal effect (Emax) turned out to be 159%. On to `O=C1Nc2cc(Cl)c(-c3ccc(C4(CO)CC4)cc3)cc2C1=C(O)c1cc(Br)no1` [Compound 73, 3-[1-(3-Bromo-isoxazol-5-yl)-1-hydroxy-methylidene]-6-chloro-5-[4-(1-hydroxymethyl-cyclopropyl)phenyl]-1,3-dihydro-indol-2-one], for which the concentration giving a half-maximal response (EC50) was 6 nM and the Emax was 148%. As to `Cc1cc(C(O)=C2C(=O)Nc3cc(Cl)c(-c4ccc(N5CCN(C)CC5)cc4)cc32)on1` [Compound 74, 6-Chloro-3-[1-hydroxy-1-(3-methyl-isoxazol-5-yl)methylidene]-5-[4-(4-methyl-piperazin-1-yl)-phenyl]-1,3-dihydro-indol-2-one, hydrochloride], the EC50 came out at 112 nM and the Emax worked out at 213%. For `Cc1ncc(C(O)=C2C(=O)Nc3cc(Cl)c(-c4ccc(C5(CO)CC5)cc4)cc32)s1` [Compound 75, 6-Chloro-5-[4-(1-hydroxymethyl-cyclopropyl)phenyl]-3-[1-hydroxy-1-(2-methyl-thiazol-5-yl)methylidene]-1,3-dihydro-indol-2-one], in that order: 1 nM and 142%. For `CC(C)(C)c1cc(C(O)=C2C(=O)Nc3cc(Cl)c(-c4ccc(C5(CO)CC5)cc4)cc32)on1` [Compound 76, 3-[1-(3-tert-Butyl-isoxazol-5-yl)-1-hydroxy-methylidene]-6-chloro-5-[4-(1-hydroxymethyl-cyclopropyl)phenyl]-1,3-dihydro-indol-2-one], in that order: 2 nM and 124%. For the molecule `COc1ccc(C(O)=C2C(=O)Nc3cc(Cl)c(-c4ccc(N5CCOCC5)cc4)cc32)cc1F` [Compound 77, 6-Chloro-3-[1-(3-fluoro-4-methoxy-phenyl)-1-hydroxy-methylidene]-5-(4-morpholin-4-yl-phenyl)-1,3-dihydro-indol-2-one], the EC50 was 0.5 nM and the Emax worked out at 128%. As for `Cc1cc(C(O)=C2C(=O)Nc3cc(Cl)c(-c4ccc(C5CCN(C)CC5)cc4)cc32)on1` [Compound 78, 6-Chloro-3-[1-hydroxy-1-(3-methyl-isoxazol-5-yl)methylidene]-5-[4-(1-methyl-piperidin-4-yl)phenyl]-1,3-dihydro-indol-2-one, hydrochloride], the half-maximal effective concentration (EC50) was found to be 7 nM and the Emax was found to be 141%. For `COCCOc1cc(C(O)=C2C(=O)Nc3cc(Cl)c(-c4ccc(-c5cccc(OC)c5O)cc4)cc32)on1` [Compound 79, 6-chloro-3-[hydroxy-[3-(2-methoxyethoxy)isoxazol-5-yl]methylene]-5-[4-(2-hydroxy-3-methoxy-phenyl)phenyl]indolin-2-one], in that order: 38 nM and 133%. The matching figures for `Cc1cc(C(O)=C2C(=O)Nc3cc(Cl)c(-c4ccc(C(O)(CO)CCl)cc4)cc32)on1` (stereo not drawn) [Compound 80, 6-chloro-5-[4-[1-(chloromethyl)-1,2-dihydroxy-ethyl]phenyl]-3-[hydroxy-(3-methylisoxazol-5-yl)methylene]indolin-2-one]: 15 nM and 99%. `COc1cc(-c2cc3c(cc2Cl)NC(=O)C3=C(O)c2cc(C)no2)ccc1O` [Compound 81, 6-chloro-5-(4-hydroxy-3-methoxy-phenyl)-3-[hydroxy-(3-methylisoxazol-5-yl)methylene]indolin-2-one]: the EC50 came out at 780 nM and the Emax was found to be 136%. `Cc1cc(C(O)=C2C(=O)Nc3cc(Cl)c(-c4ccc(OCCN5CCOCC5)cc4)cc32)on1` [Compound 82, 6-chloro-3-[hydroxy-(3-methylisoxazol-5-yl)methylene]-5-[4-(2-morpholinoethoxy)phenyl]indolin-2-one hydrochloride]: the EC50 is 280 nM and the maximal effect (Emax) turned out to be 130%.

Consider `COc1cc(C(O)=C2C(=O)Nc3cc(F)c(-c4ccc(C5(CO)CC5)cc4)c(F)c32)on1` [Compound 83, 4,6-difluoro-3-[hydroxy-(3-methoxyisoxazol-5-yl)methylene]-5-[4-[1-(hydroxymethyl)cyclopropyl]phenyl]indolin-2-one], for which the EC50 was determined as 0.1 nM.

In the case of `COc1ccc(C(O)=C2C(=O)Nc3cc(Cl)c(-c4ccc(-c5cccc(OC)c5O)cc4)cc32)cc1F` [Compound 84, 6-chloro-3-[(3-fluoro-4-methoxy-phenyl)hydroxy-methylene]-5-[4-(2-hydroxy-3-methoxy-phenyl)phenyl]indolin-2-one], the EC50 was 0.6 nM and 1 nM; the maximal effect (Emax) turned out to be 170%. For `Cc1cc(C(O)=C2C(=O)Nc3cc(Cl)c(-c4ccc(C5(CO)CC5)cc4F)cc32)on1` [Compound 85, 6-chloro-5-[2-fluoro-4-[1-(hydroxymethyl)cyclopropyl]phenyl]-3-[hydroxy-(3-methylisoxazol-5-yl)methylene]indolin-2-one], the 50% effective concentration (EC50) turned out to be 1 nM and the maximum response (Emax) is 151%. `O=C1Nc2cc(Cl)c(-c3ccc(N4CCOCC4)cc3)cc2C1=C(O)c1cc(C2CCCCC2)no1` [Compound 86, 6-chloro-3-[(3-cyclohexylisoxazol-5-yl)hydroxy-methylene]-5-(4-morpholinophenyl)indolin-2-one]: the EC50 came out at 61 nM and the maximal effect (Emax) amounted to 155%.

For `O=C1Nc2cc(Cl)c(-c3ccc(N4CCOCC4)cc3)cc2C1=C(O)c1cc(C2CC2)no1` [Compound 87, 6-chloro-3-[(3-cyclopropylisoxazol-5-yl)hydroxy-methylene]-5-(4-morpholinophenyl)indolin-2-one], the concentration for a half-maximal effect (EC50) was 0.5 nM and 0.6 nM.

`COc1ccc(C(O)=C2C(=O)Nc3cc(Cl)c(-c4ccc(C5(CO)CC5)cc4)cc32)cc1F` [Compound 88, 6-chloro-3-[(3-fluoro-4-methoxy-phenyl)hydroxy-methylene]-5-[4-[1-(hydroxymethyl)cyclopropyl]phenyl]indolin-2-one]: the EC50 is 0.6 nM and 0.4 nM. Turning to `COc1cc(C(O)=C2C(=O)Nc3cc(Cl)c(-c4ccc(C5(O)CCOCC5)cc4)cc32)on1` [Compound 89, 6-chloro-3-[hydroxy-(3-methoxyisoxazol-5-yl)methylene]-5-[4-(4-hydroxytetrahydropyran-4-yl)phenyl]indolin-2-one], the concentration giving a half-maximal response (EC50) was 7 nM and the maximum response (Emax) was 203%. Regarding `COc1cccc(-c2ccc(-c3cc4c(cc3Cl)NC(=O)C4=C(O)c3cc(OCCN4CCOCC4)no3)cc2)c1O` [Compound 90, 6-chloro-5-[4-(2-hydroxy-3-methoxy-phenyl)phenyl]-3-[hydroxy-[3-(2-morpholinoethoxy)isoxazol-5-yl]methylene]indolin-2-one], the 50% effective concentration (EC50) was 0.1 nM and 0.2 nM.

Broadly, the EC50 is the concentration needed to bring the measured effect to its halfway point. In general, Emax refers to the size of the effect at its maximum, as opposed to the concentration needed.
